# Reference: paper PMC5829162, “Rational Design, Synthesis and Biological Evaluation of Pyrimidine-4,6-diamine derivatives as Type-II inhibitors of FLT3 Selective Against c-KIT” (Scientific Reports, 2018)
# Read-outs that look alike come from different tables or passages of the source.
# Experiments:
# Molm14^F691L = test: Cell proliferation (CellTiter-Glo, 48 h), Molm14 F691L; type: cell-based; settings: Homo sapiens, MOLM-14; Molm14^F691L, 48 hours
# Source text: (§1) Stable BaF3 populations expressing activated FLT3 were generated by retroviral spinfection with the appropriate mutated plasmid followed by selection and growth factor withdrawal as previously described. The BaF3 cell line was originally obtained from the laboratory of Charles Sawyers and has not been authenticated. MV411 and Molm14 cells were obtained from the laboratory of Scott Kogan and authenticated by Promega STR analysis in June 2013. All cell lines were mycoplasma-free. Cells were incubated with compounds for 48 hours and proliferation was assessed using CellTiter-Glo (Promega; Madison, WI) according to the manufacturer’s recommendation on a SpectraMax M3 microplate reader using SpectraMax Software (Molecular Devices; Sunnyvale, CA). All cell viability data shown is reflective of experiments performed a minimum of three times. […]
# (§2) S13. Cell Cultures: Stable BaF3 populations expressing activated FLT3 were generated by retroviral spinfection with the appropriate mutated plasmid followed by selection and growth factor withdrawal as previously described .4 The BaF3 cell line was originally obtained from the laboratory of Charles Sawyers and has not been authenticated. MV411 and Molm14 cells were obtained from the laboratory of Scott Kogan and authenticated by Promega STR analysis in June
# (§3) 2013. All cell lines were mycoplasma -free. Cells were incubated with compounds for 48 hours and proliferation was assessed using CellTiter -Glo (Promega; Madison, WI) according to the manufacturer’s recommendation on a SpectraMax M3 microplate reader using SpectraMax Software (Molecular Devices; Sunnyvale, CA). All cell viability data shown is reflective of experiments performed a minimum of three times.
# FLT3 kinase = target: T1, FLT3 kinase (Homo sapiens, UniProt P36888); test: Biochemical enzyme inhibition assay (microfluidics, Caliper EZ Reader II), FLT3; settings: for IC50: in vitro kinase assay, 60 min pre-incubation, ATP 190 µM, three independent experiments; for LE: ligand efficiency for FLT3 inhibition
# T1 construct: purchased Invitrogen
# T1 sequence (P36888 27-993): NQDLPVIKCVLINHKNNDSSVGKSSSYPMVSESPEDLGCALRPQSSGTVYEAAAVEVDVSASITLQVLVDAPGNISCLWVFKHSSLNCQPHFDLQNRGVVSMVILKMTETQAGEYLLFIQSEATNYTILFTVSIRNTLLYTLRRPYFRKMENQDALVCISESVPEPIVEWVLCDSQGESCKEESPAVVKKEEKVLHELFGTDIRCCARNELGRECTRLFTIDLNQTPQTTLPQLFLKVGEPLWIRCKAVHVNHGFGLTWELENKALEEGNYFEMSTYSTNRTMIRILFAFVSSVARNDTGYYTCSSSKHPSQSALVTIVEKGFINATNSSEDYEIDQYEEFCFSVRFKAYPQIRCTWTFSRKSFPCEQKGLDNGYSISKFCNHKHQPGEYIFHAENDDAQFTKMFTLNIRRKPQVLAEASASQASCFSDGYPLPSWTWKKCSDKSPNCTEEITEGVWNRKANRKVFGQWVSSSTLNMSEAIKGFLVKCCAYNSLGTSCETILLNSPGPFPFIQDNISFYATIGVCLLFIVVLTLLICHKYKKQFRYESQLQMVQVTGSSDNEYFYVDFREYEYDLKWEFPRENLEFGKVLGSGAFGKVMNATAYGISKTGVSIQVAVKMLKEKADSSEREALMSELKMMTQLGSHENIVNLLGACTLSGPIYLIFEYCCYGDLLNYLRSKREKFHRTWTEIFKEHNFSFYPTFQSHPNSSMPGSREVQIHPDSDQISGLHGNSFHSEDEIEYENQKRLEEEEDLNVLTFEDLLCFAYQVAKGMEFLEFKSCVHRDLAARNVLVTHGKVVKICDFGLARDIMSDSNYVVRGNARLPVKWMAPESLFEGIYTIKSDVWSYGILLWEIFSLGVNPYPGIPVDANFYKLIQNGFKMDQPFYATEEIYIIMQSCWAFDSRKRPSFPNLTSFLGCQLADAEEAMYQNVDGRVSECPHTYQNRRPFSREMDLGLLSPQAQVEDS
# Protocol: Kinase activity was measured in a microfluidics assay that monitors the separation of a phosphorylated product from substrate[31],[32]. […] After, 1 μL was transferred into a 384-well polypropylene assay plate (Greiner, Frickenhausen, Germany). The FLT3 enzyme (Invitrogen™, Grand Island, USA) was diluted in kinase buffer to a concentration of 2 nM and 5 µL of the enzyme mixture was transferred to the assay plate. The inhibitors/FLT3 enzyme were incubated for 60 minutes with minor shaking. […] For positive control, no inhibitor was added. For negative control, no enzyme was added. For running control, quizartinib was utilized. The plate was run until 10–20% conversion based on the positive control wells. The following separation conditions were utilized: upstream voltage −500V; downstream voltage, −1900V; chip pressure −0.8. Percent inhibition was measured for each well comparing starting peptide to phosphorylated product peaks relative to the baseline. Dose response curves, spanning the IC50 dose, were generated in GraphPad Prisim 6 and fit to an exponential one-phase decay line and IC50 values were obtained from the half-life value of the curve. IC50 values were generated in duplicate and error was calculated from the standard deviation between values.
# S10. Biochemical Inhibition Assay:1,2 Kinase activity was measured in a microfluidics assay that monitors the separation of a phosphorylated product from substrate. The assay was run using a 12-sipper chip on a Caliper EZ Reader II (PerkinElmer®, Walthman, USA) with separation […]
# Walthman, USA]). In 96-well polypropylene plates (Greiner, Frickenhausen, Germany) […]
# After, 1 μL was transferred into a 384-well polypropylene assay plate (Greiner, Frickenhausen, Germany). The FLT3 enzyme (Invitrogen™, Grand Island, USA) was diluted in kinase buffer to a concentration of 2 nM and 5 µL of the enzyme mixture was transferred to the assay plate. The inhibitors/FLT3 enzyme were incubated for 60 minutes with minor shaking. A substrate mix was prepared containing ATP (Ambresco®, Solon, USA) and […]
# USA) dissolved in kinase buffer, and 5 µL of the substrate mix was added to the assay plate.
# For positive control, no inhibitor was added. For negative control, no enzyme was added. For running control, quizartinib was utilized. The plate was run until 10-20% conversion based on the positive control wells. The following separation conditions were utilized: upstream voltage -500V; downstream voltage, -1900V; chip pressure - 0.8. Percent inhibition was measured for each well comparing starting peptide to phosphorylated product peaks relative to the baseline. Dose response curves, spanning the IC50 dose, were generated in GraphPad Prisim 6 and fit to an exponential one-phase decay line and IC50 values were obtained from the half-life value of the curve. IC50 values were generated in duplicate and error was calculated from the standard deviation between values. […]
# Molm14^D835Y = test: Cell proliferation (CellTiter-Glo, 48 h), Molm14 D835Y; type: cell-based; settings: Homo sapiens, MOLM-14; Molm14^D835Y, 48 hours
# Source text: as §1, §2, §3
# Ba/F3 FLT3-ITD = test: Cell proliferation (CellTiter-Glo, 48 h), Ba/F3 FLT3-ITD; type: cell-based
# Source text: as §1, §2, §3
# Molm14 par = test: Cell proliferation (CellTiter-Glo, 48 h), Molm14 par; type: cell-based; settings: Homo sapiens, MOLM-14
# Source text: as §1, §2, §3
# MV4–11 AML cells = test: Cell proliferation (CellTiter-Glo, 48 h), MV4-11; type: cell-based; settings: Homo sapiens; MV4–11, 48 hours
# Source text: as §1, §2, §3
GI50 (Molm14^F691L),melting point,IC50 (FLT3 kinase; read-out: FLT3 IC50 (nM) ± SD),LE (FLT3 kinase),GI50 (Molm14^D835Y),GI50 (Ba/F3 FLT3-ITD),GI50 (Molm14 par),GI50 (MV4–11 AML cells),fold less active than 13a on FLT3 (FLT3 kinase; enzymatic FLT3 IC50 compared with 13a),SMILES,IC50 (FLT3 kinase; FLT3 IC50 (nM) ± SD)
1350 nM,194 to 196 °C,37.5 ± 13 nM,0.35,2230 nM,158 nM,187 nM,80.6 nM,–,"CNc1cc(Nc2ccc(CC(=O)Nc3cc(C(C)(C)C)nn3C)cc2)ncn1 [13b, 2-(4-(6-(Methylamino)pyrimidin-4-ylamino)phenyl)-N-(3-tert-butyl-1-methyl-1H-pyrazol-5-yl)acetamide]",–
–,254 to 256 °C,1180 ± 527 nM,0.22,–,–,–,–,–,"CC(C)(C)c1cc(NC(=O)Cc2ccc(Nc3cc(Nc4cccc(C(F)(F)F)c4)ncn3)cc2)no1 [13m, 2-(4-(6-(3-(Trifluoromethyl)phenylamino)pyrimidin-4-ylamino)phenyl)-N-(5-tert-butylisoxazol-3-yl)acetamide]",–
–,154 to 156 °C,1030 ± 121 nM,0.23,–,–,–,–,–,"CC(C)(C)c1cc(NC(=O)Cc2ccc(Nc3cc(NCCCN4CCCC4)ncn3)cc2)no1 [13n, 2-(4-(6-(3-(Pyrrolidin-1-yl)propylamino)pyrimidin-4-ylamino)phenyl)-N-(5-tert-butylisoxazol-3-yl)acetamide]",–
–,218 to 220 °C,395 ± 78 nM,0.28,–,–,–,–,–,"CC(C)(C)c1cc(NC(=O)Cc2ccc(Nc3cc(N4CCOCC4)ncn3)cc2)no1 [13p, 2-(4-(6-Morpholinopyrimidin-4-ylamino)phenyl)-N-(5-tert-butylisoxazol-3-yl)acetamide]",–
–,170 to 172 °C,8760 ± 127 nM,0.24,–,–,–,–,–,"CN(C)c1cc(Oc2ccc(CC(=O)Nc3cc(C(C)(C)C)on3)cc2)ncn1 [13q, 2-(4-(6-(Dimethylamino)pyrimidin-4-yloxy)phenyl)-N-(5-tert-butylisoxazol-3-yl)acetamide]",–
1350 nM,216 to 218 °C,411 ± 236 nM,0.30,2230 nM,266 nM,187 nM,80.6 nM,–,"CNc1cc(Nc2ccc(CC(=O)Nc3cccc(C(F)(F)F)c3)cc2)ncn1 [13r, 2-(4-(6-(Methylamino)pyrimidin-4-ylamino)phenyl)-N-(3-(trifluoromethyl)phenyl) acetamide]",–
–,225 to 227 °C,860 ± 30 nM,0.22,–,–,–,–,–,"CS(=O)(=O)c1ccc(Nc2cc(Nc3ccc(CC(=O)Nc4cccc(C(F)(F)F)c4)cc3)ncn2)cc1 [13s, 2-(4-(6-(4-(Methylsulfonyl)phenylamino)pyrimidin-4-ylamino)phenyl)-N-(3-(trifluoromethyl)phenyl)acetamide]",–
–,212 to 214 °C,909 ± 95.9 nM,0.22,–,–,–,–,–,"O=C(Cc1ccc(Nc2cc(NCCCN3CCCC3)ncn2)cc1)Nc1ccc(OC(F)(F)F)cc1 [13t, 2-(4-(6-(3-(Pyrrolidin-1-yl)propylamino)pyrimidin-4-ylamino)phenyl)-N-(4-(trifluoromethoxy)phenyl)acetamide]",–
> 10000 nM,220 to 222 °C,2120 ± 401 nM,0.27,> 10000 nM,> 10000 nM,> 10000 nM,> 10000 nM,–,"CNc1cc(Nc2ccc(CC(=O)Nc3ccc(S(C)(=O)=O)cc3)cc2)ncn1 [13v, 2-(4-(6-(methylamino)pyrimidin-4-ylamino)phenyl)-N-(4-(methylsulfonyl)phenyl) acetamide]",–
–,208 to 210 °C,5090 ± 75.5 nM,0.25,–,–,–,–,–,"CNc1cc(Oc2ccc(CC(=O)Nc3ccc(C(C)(C)C)cc3)cc2)ncn1 [13x, 2-(4-(6-(Methylamino)pyrimidin-4-yloxy)phenyl)-N-(4-tert-butylphenyl)acetamide]",–
–,220 to 222 °C,7370 ± 333 nM,0.23,–,–,–,–,–,"CNc1cc(Nc2ccc(CC(=O)Nc3ccc(OC(F)(F)F)cc3)cc2)ncn1 [13z, 2-(4-(6-(Methylamino)pyrimidin-4-ylamino)phenyl)-N-(4-(trifluoromethoxy)phenyl) acetamide]",–
–,238 to 240 °C,41 ± 6.8 nM,0.27,–,–,–,–,~ 3 fold,"Cn1nc(C(C)(C)C)cc1NC(=O)Nc1ccc(Nc2cc(Nc3ccc(S(C)(=O)=O)cc3)ncn2)cc1 [24a, 1-(4-(6-(4-(Methylsulfonyl)phenylamino)pyrimidin-4-ylamino)phenyl)-3-(3-tert-butyl-1-methyl-1H-pyrazol-5-yl)urea]",–
–,242 to 244 °C,38.2 ± 1.5 nM,0.37,–,–,–,–,–,"CNc1cc(Nc2ccc(NC(=O)Nc3cc(C(C)(C)C)nn3C)cc2)ncn1 [24b, 1-(4-(6-(Methylamino)pyrimidin-4-ylamino)phenyl)-3-(3-tert-butyl-1-methyl-1H-pyrazol-5-yl)urea]",–
–,245 to 247 °C,29 ± 1.9 nM,0.28,–,–,–,–,–,"CC(C)(C)c1cc(NC(=O)Nc2ccc(Nc3cc(Nc4ccc(S(C)(=O)=O)cc4)ncn3)cc2)no1 [24c, 1-(4-(6-(4-(Methylsulfonyl)phenylamino)pyrimidin-4-ylamino)phenyl)-3-(5-tert-butylisoxazol-3-yl)urea]",–

SMILES,GI50 (Molm14^F691L),melting point,IC50 (FLT3 kinase; read-out: FLT3 IC50 (nM) ± SD),LE (FLT3 kinase),GI50 (Molm14^D835Y),GI50 (Ba/F3 FLT3-ITD),GI50 (Molm14 par),GI50 (MV4–11 AML cells),fold less active than 13a on FLT3 (FLT3 kinase; enzymatic FLT3 IC50 compared with 13a),IC50 (FLT3 kinase; FLT3 IC50 (nM) ± SD)
"CC(C)(C)c1cc(NC(=O)Cc2ccc(Nc3cc(Oc4ccc(Br)cc4)ncn3)cc2)no1 [13o, 2-(4-(6-(4-Bromophenoxy)pyrimidin-4-ylamino)phenyl)-N-(5-tert-butylisoxazol-3-yl)acetamide]",–,188 to 190 °C,–,0.19,–,–,–,–,–,14800 ± 248 nM
